{"source": "paper PMC4787765", "about": "(Nucleic Acids Research, 2015)", "key": {"eIF2Bα (cteIF2Bα) [1]": {"target": "eIF2Bα (cteIF2Bα)", "test": "ITC", "type": "binding, Thermochaetoides thermophila"}, "eIF2Bα (cteIF2Bα) [2]": {"target": "eIF2Bα (cteIF2Bα)", "test": "ITC", "type": "binding, Thermochaetoides thermophila", "remark": "listed apart in the source"}, "eIF2Bα (cteIF2Bα) [3]": {"target": "eIF2Bα (cteIF2Bα)", "test": "ITC", "type": "binding, Thermochaetoides thermophila", "remark": "listed apart in the source"}, "[4]": {"target": "Chaetomium thermophilum eIF2Bα (Chaetomium thermophilum)", "test": "SEC-MALS"}, "[5]": {"target": "eIF2B(βδ)2 complex (Chaetomium thermophilum, untagged full-length subunits) (Chaetomium thermophilum)", "test": "SEC-MALS"}}, "note": "Read-outs that look alike come from different tables or passages of the source.", "data": [{"compound": "Nc1ncnc2c1ncn2[C@@H]1O[C@H](COP(=O)(O)O)[C@@H](O)[C@H]1O", "note": "[AMP]", "values": [{"measurement": "Kd", "setting": "eIF2Bα (cteIF2Bα) [1]", "value": 10, "unit": "µM"}]}, {"compound": "Nc1ccn([C@@H]2O[C@H](COP(=O)(O)O)[C@@H](O)[C@H]2O)c(=O)n1", "note": "[CMP]", "values": [{"measurement": "Kd", "setting": "eIF2Bα (cteIF2Bα) [2]", "value": 65, "unit": "µM"}]}, {"compound": "Nc1nc2c(ncn2[C@@H]2O[C@H](COP(=O)(O)O)[C@@H](O)[C@H]2O)c(=O)[nH]1", "note": "[GMP]", "values": [{"measurement": "Kd", "setting": "eIF2Bα (cteIF2Bα) [3]", "value": 2.9, "unit": "µM"}]}, {"compound": "Chaetomium thermophilum eIF2Bα (natural protein)", "values": [{"measurement": "stoichiometry N", "setting": "[4]", "value": 2}, {"measurement": "stoichiometry N", "setting": "[5]", "value": 1}]}]}
